Results published in the supplement of paper PMC10307832.

What was measured:
Assay in all cases: relative viability (nuclei count vs DMSO), 5 days (fraction); higher = more cells survive
BI-D1870 + Olaparib = compound: CC(C)CCN1c2nc(Nc3cc(F)c(O)c(F)c3)ncc2N(C)C(=O)C1C [BI-D1870] + O=C(c1cc(Cc2n[nH]c(=O)c3ccccc23)ccc1F)N1CCN(C(=O)C2CC2)CC1 [Olaparib] (partner 8 µM)
Summary of the method: (§1)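 Relative viability equals treated-well nuclei counts divided by vehicle-well nuclei counts. Counts came from 4× images of lung cancer cell lines grown in 1536-well plates for 5 days after pin-tool dosing on the day after seeding. Dosing used one drug alone or a fixed anchor-drug dose plus five library-drug doses (not always all listed) in √10 steps, and values are medians of duplicate plates.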

BI-D1870 + Lapatinib = compound: CC(C)CCN1c2nc(Nc3cc(F)c(O)c(F)c3)ncc2N(C)C(=O)C1C [BI-D1870] + CS(=O)(=O)CCNCc1ccc(-c2ccc3ncnc(Nc4ccc(OCc5cccc(F)c5)c(Cl)c4)c3c2)o1 [Lapatinib] (partner 2 µM)
Summary of the method: as §1

BI-D1870 + Tozasertib = compound: CC(C)CCN1c2nc(Nc3cc(F)c(O)c(F)c3)ncc2N(C)C(=O)C1C [BI-D1870] + Cc1cc(Nc2cc(N3CCN(C)CC3)nc(Sc3ccc(NC(=O)C4CC4)cc3)n2)n[nH]1 [Tozasertib] (partner 0.1 µM)
Summary of the method: as §1

BI-D1870 + Bortezomib = compound: CC(C)CCN1c2nc(Nc3cc(F)c(O)c(F)c3)ncc2N(C)C(=O)C1C [BI-D1870] + CC(C)C[C@H](NC(=O)[C@H](Cc1ccccc1)NC(=O)c1cnccn1)B(O)O [Bortezomib] (partner 0.002 µM)
Summary of the method: as §1

Cell Line	relative viability (BI-D1870 + Olaparib; first compound 0.04 µM)	relative viability (BI-D1870 + Olaparib; first compound 0.1265 µM)	relative viability (BI-D1870 + Olaparib; first compound 0.4 µM)	relative viability (BI-D1870 + Olaparib; first compound 1.265 µM)	relative viability (BI-D1870 + Olaparib; first compound 4 µM)	relative viability (BI-D1870 + Lapatinib; first compound 0.04 µM)	relative viability (BI-D1870 + Lapatinib; first compound 0.1265 µM)	relative viability (BI-D1870 + Lapatinib; first compound 0.4 µM)	relative viability (BI-D1870 + Lapatinib; first compound 1.265 µM)	relative viability (BI-D1870 + Lapatinib; first compound 4 µM)	relative viability (BI-D1870 + Tozasertib; first compound 0.04 µM)	relative viability (BI-D1870 + Tozasertib; first compound 0.1265 µM)	relative viability (BI-D1870 + Tozasertib; first compound 0.4 µM)	relative viability (BI-D1870 + Tozasertib; first compound 1.265 µM)	relative viability (BI-D1870 + Tozasertib; first compound 4 µM)	relative viability (BI-D1870 + Bortezomib; first compound 0.04 µM)	relative viability (BI-D1870 + Bortezomib; first compound 0.1265 µM)	relative viability (BI-D1870 + Bortezomib; first compound 0.4 µM)	relative viability (BI-D1870 + Bortezomib; first compound 1.265 µM)	relative viability (BI-D1870 + Bortezomib; first compound 4 µM)
LU99A	0.274	0.243	0.264	0.244	0.229	1.11	0.942	0.928	0.941	0.939	0.274	0.253	0.273	0.316	0.25	1.34	1.03	1.12	1.06	1.02
ABC-1	0.751	0.782	1	0.613	0.666	1.19	0.952	1.05	1.28	1.02	0.171	0.155	0.15	0.197	0.197	0.306	0.353	0.232	0.298	0.244
NCI-H2347	0.547	0.589	0.552	0.633	0.487	1.12	0.977	0.745	0.921	1.03	0.635	0.501	0.595	0.516	0.335	1.04	0.856	1.14	1.24	0.915
NCI-H1993	1.26	0.907	0.987	1.15	0.995	0.855	0.774	0.88	0.809	0.789	0.606	0.602	0.58	0.566	0.612	1.22	0.961	1.12	1.31	0.981
NCI-H322M	0.736	0.75	0.713	0.735	0.624	0.605	0.535	0.598	0.529	0.559	0.494	0.508	0.456	0.495	0.41	1.23	1.24	1.22	1.14	1.06
NCI-H838	0.792	0.719	0.74	0.855	0.663	1.13	0.942	1.1	1.24	1.02	0.283	0.265	0.243	0.251	0.22	0.901	0.72	0.747	1.14	0.768
HARA	0.795	0.826	0.86	0.868	0.972	0.973	0.722	0.842	0.998	0.74	0.129	0.101	0.128	0.139	0.0974	1.03	1.03	1.22	1.18	0.943
NCI-H2087	0.708	0.519	0.572	0.563	0.564	1.14	1.09	1.34	1.36	0.877	0.217	0.212	0.203	0.215	0.142	0.829	0.845	0.927	1.13	0.839
NCI-H1437	0.617	0.577	0.578	0.578	0.445	0.899	0.686	0.76	0.802	0.653	0.432	0.382	0.377	0.387	0.363	0.539	0.474	0.478	0.466	0.423
NCI-H650	0.443	0.375	0.366	0.369	0.315	1.04	0.726	0.836	0.975	0.879	0.752	0.677	0.689	0.588	0.265	1.11	0.784	0.899	0.96	0.611
COR-L23	0.315	0.325	0.327	0.35	0.245	1.07	0.929	0.992	0.798	0.982	0.199	0.166	0.145	0.181	0.13	1.28	0.844	0.979	0.926	1.03
COR-L 105	0.79	0.533	0.713	0.687	0.678	0.387	0.363	0.355	0.407	0.335	0.416	0.319	0.343	0.341	0.33	0.835	0.831	0.88	0.774	0.713
201T	0.901	0.806	0.809	0.851	0.856	1.01	0.97	1.05	1.02	1.03	0.993	0.905	0.935	0.955	0.936	1.14	1.06	1.07	1.1	1.06
HCC-44	1	0.954	0.98	1.05	0.976	1.05	1.04	1.02	0.961	1.1	1.29	0.89	0.855	0.602	0.404	1.08	0.965	0.909	0.941	0.99
NCI-H596	0.73	0.743	0.625	0.671	0.63	1.05	1.03	1.19	1.09	1.05	0.953	0.82	0.901	0.81	0.905	1.38	0.86	1.12	1.19	0.943
H3255	0.591	0.526	0.59	0.602	0.526	0.221	0.266	0.258	0.296	0.244	0.641	0.57	0.68	0.604	0.739	0.67	0.779	0.769	0.969	0.748
